Source: the supplement of paper PMC13380429

Columns and labels:
Conditions in all cases: 72 h
Caco-2 [1] = assay: relative viability EC50 (midpoint between 100% and the lowest measured viability); higher = less toxic
Vero E6 [2] = assay: as above
U2OS [3] = assay: as above
Calu-3 [4] = assay: as above
HepG2 [5] = assay: as above
Caco-2 [6] = assay: drug sensitivity score (DSS) for viability; higher = more toxic; extreme values may be limits of the assay
Vero E6 [7] = assay: as above
U2OS [8] = assay: as above
Calu-3 [9] = assay: as above
HepG2 [10] = assay: as above
Caco-2 [11] = assay: cell viability relative to DMSO; higher = less toxic
Vero E6 [12] = assay: as above
U2OS [13] = assay: as above
Calu-3 [14] = assay: as above
HepG2 [15] = assay: as above

Row | SMILES | relative viability EC50 (Caco-2 [1]) | relative viability EC50 (Vero E6 [2]) | relative viability EC50 (U2OS [3]) | relative viability EC50 (Calu-3 [4]) | relative viability EC50 (HepG2 [5]) | drug sensitivity score (Caco-2 [6]) | drug sensitivity score (Vero E6 [7]) | drug sensitivity score (U2OS [8]) | drug sensitivity score (Calu-3 [9]) | drug sensitivity score (HepG2 [10]) | cell viability (Caco-2 [11]; 1 nM) | cell viability (Caco-2 [11]; 10 nM) | cell viability (Caco-2 [11]; 100 nM) | cell viability (Caco-2 [11]; 1000 nM) | cell viability (Caco-2 [11]; 10000 nM) | cell viability (Vero E6 [12]; 1 nM) | cell viability (Vero E6 [12]; 10 nM) | cell viability (Vero E6 [12]; 100 nM) | cell viability (Vero E6 [12]; 1000 nM) | cell viability (Vero E6 [12]; 10000 nM) | cell viability (U2OS [13]; 1 nM) | cell viability (U2OS [13]; 10 nM) | cell viability (U2OS [13]; 100 nM) | cell viability (U2OS [13]; 1000 nM) | cell viability (U2OS [13]; 10000 nM) | cell viability (Calu-3 [14]; 1 nM) | cell viability (Calu-3 [14]; 10 nM) | cell viability (Calu-3 [14]; 100 nM) | cell viability (Calu-3 [14]; 1000 nM) | cell viability (Calu-3 [14]; 10000 nM) | cell viability (HepG2 [15]; 1 nM) | cell viability (HepG2 [15]; 10 nM) | cell viability (HepG2 [15]; 100 nM) | cell viability (HepG2 [15]; 1000 nM) | cell viability (HepG2 [15]; 10000 nM)
1 | CC1(C)CC(=O)C(C2C3=C(CC(C)(C)CC3=O)Oc3ccccc32)C(=O)C1 (stereo unspecified) | > 10 µM | > 10 µM | > 10 µM | > 10 µM | > 10 µM | 0 | 0 | 0 | 0 | 0 | 99.2% | 93.7% | 96.5% | 95.8% | 99.2% | 102% | 98% | 103% | 102% | 100% | 96.7% | 101% | 95% | 98.2% | 101% | 93% | 98.1% | 98% | 101% | 109% | 92.1% | 103% | 97.5% | 96.8% | 102%
2 | CCN(CC)CCCC(C)Nc1nc(C)cc(Nc2ccc3nc(C)cc(N)c3c2)n1 (stereo unspecified) | > 10 µM | > 10 µM | > 10 µM | > 10 µM | > 10 µM | 0 | 0 | 0 | 0 | 1.2 | 102% | 97.2% | 99.5% | 95% | 105% | 97.7% | 102% | 104% | 97.9% | 97.6% | 106% | 97.6% | 100% | 97.8% | 102% | 104% | 92% | 95.4% | 92.5% | 110% | 96% | 99.9% | 100% | 95.6% | 79.9%
3 | CNc1nc(C)nc(N[C@H]2CCC[C@@H](C(=O)NCc3ccc(C#N)cc3C(F)(F)F)C2)n1 | > 10 µM | > 10 µM | > 10 µM | > 10 µM | > 10 µM | 0 | 0 | 0 | 0 | 0 | 87.8% | 102% | 91.8% | 98.6% | 95.1% | 99.3% | 96.8% | 100% | 96.8% | 108% | 97% | 100% | 97.9% | 107% | 99.9% | 93.9% | 98.1% | 97% | 93.2% | 89.4% | 99.4% | 98.7% | 103% | 94.7% | 111%
4 | COc1cc(Nc2nc3ccccc3nc2NS(=O)(=O)c2ccc(NC(=O)c3ccc(C)c(OC)c3)cc2)cc(OC)c1 | > 10 µM | > 10 µM | > 10 µM | > 10 µM | > 10 µM | 0 | 0 | 0 | 0 | 0 | 95.4% | 100% | 96% | 97.7% | 103% | 99.9% | 95.9% | 102% | 95.7% | 99.9% | 97% | 97.7% | 97.1% | 95.9% | 103% | 109% | 85.9% | 109% | 94.4% | 110% | 101% | 83.8% | 92.1% | 99.1% | 89.7%
5 | COc1cccc(CN(C(=O)CC(C)(C)C)[C@H]2C[C@@H](C(=O)N3CCNCC3)N(Cc3ccc4c(c3)OCO4)C2)c1 | > 10 µM | > 10 µM | > 10 µM | > 10 µM | > 10 µM | 0 | 0 | 0 | 0 | 0 | 98.4% | 106% | 98.3% | 102% | 87.5% | 101% | 102% | 107% | 98.2% | 95.6% | 95.2% | 98% | 97.3% | 97% | 90.7% | 93.6% | 98% | 95.3% | 92.4% | 102% | 94.8% | 96.2% | 87.2% | 104% | 91.4%
6 | Clc1cccc2c1CN(C1=NCCN1)C2 | > 10 µM | > 10 µM | > 10 µM | > 10 µM | > 10 µM | 0 | 0 | 0 | 0 | 0 | 100% | 100% | 95.6% | 98.8% | 97.3% | 98.9% | 98.7% | 104% | 98.5% | 99.2% | 101% | 101% | 97.3% | 102% | 92.1% | 97.1% | 90.1% | 109% | 101% | 98.3% | 96.7% | 101% | 91.8% | 92.5% | 97.3%
7 | NC(=O)N/N=C/c1ccc(Oc2ccc(F)cc2)cc1 | > 10 µM | > 10 µM | > 10 µM | > 10 µM | > 10 µM | 0 | 0.1 | 0 | 0 | 0.1 | 99.6% | 98.4% | 104% | 96.8% | 97.9% | 105% | 101% | 104% | 100% | 86.6% | 95.9% | 94.5% | 98.9% | 97.6% | 99.4% | 99.9% | 101% | 80.1% | 92.8% | 109% | 95.8% | 106% | 92.4% | 89.7% | 96%
8 | Nc1cccc(CNC(=O)c2ccc(Oc3ccc(OCc4cccc(F)c4)cc3)nc2)c1 | – | > 10 µM | > 10 µM | > 10 µM | > 10 µM | 0.9 | 0 | 0 | 0.7 | 1.7 | 100% | 102% | 91.5% | 107% | 71.2% | 93.4% | 99.9% | 98.8% | 102% | 99.3% | 99% | 106% | 94.8% | 101% | 92.1% | 104% | 101% | 96.1% | 97.7% | 81.9% | 92.9% | 102% | 103% | 91.8% | 77.9%
9 | O=C(N[C@H]1CN2CCC1CC2)c1ccc2c(c1)OCCO2 | > 10 µM | > 10 µM | > 10 µM | > 10 µM | > 10 µM | 0 | 0 | 0 | 0 | 0 | 93.6% | 95.2% | 87.5% | 101% | 99.1% | 100% | 89.3% | 97.2% | 91.3% | 107% | 98.8% | 94.8% | 97.8% | 95.3% | 97.2% | 93.6% | 98.3% | 102% | 102% | 99.3% | 101% | 93% | 108% | 97.7% | 94.6%
10 | O=C(O)CCc1c(C(=O)O)[nH]c2cc(Cl)cc(Cl)c12 | > 10 µM | > 10 µM | > 10 µM | > 10 µM | > 10 µM | 0 | 0 | 0 | 0 | 0 | 92.8% | 104% | 90.9% | 102% | 99.4% | 99.9% | 102% | 102% | 94.3% | 102% | 96.2% | 103% | 95.9% | 99.7% | 97.5% | 91.6% | 96.3% | 93.2% | 97.5% | 106% | 102% | 92.5% | 94.2% | 107% | 105%
11 | O=C(O)Cn1c(C(=O)Nc2nc(-c3ccccc3Cl)cs2)cc2ccccc21 | > 10 µM | > 10 µM | > 10 µM | > 10 µM | > 10 µM | 0 | 0 | 0 | 0 | 0 | 103% | 99.9% | 95.1% | 89.5% | 110% | 105% | 106% | 103% | 108% | 97.4% | 96% | 101% | 95.6% | 101% | 98.5% | 100% | 92.5% | 99.4% | 103% | 102% | 106% | 99.2% | 101% | 104% | 93.3%
12 | Cc1c(NC(=O)c2cc3c(s2)CCCC3)cccc1-c1cn(C)c(=O)c(Nc2ccc(C3C(=O)N(C)CCN3C)cc2)n1 (stereo in doubt) [GDC-0834] | – | > 10 µM | > 10 µM | > 10 µM | > 10 µM | 1.5 | 0 | 0 | 0 | 0 | 104% | 98.3% | 99.9% | 96.3% | 74.6% | 105% | 101% | 104% | 97.4% | 105% | 103% | 99.1% | 98.5% | 101% | 92.7% | 96.6% | 100% | 96.2% | 95.4% | 95.8% | 106% | 95.6% | 94.7% | 107% | 97.2%
13 | CSc1nc(-c2ccc(F)cc2)c(-c2ccnc(N[C@@H](C)c3ccccc3)c2)[nH]1 [ML3403] | – | > 10 µM | > 10 µM | > 10 µM | > 10 µM | 1.9 | 0 | 0 | 0 | 0.1 | 94.6% | 93.4% | 97.3% | 94.2% | 74.2% | 102% | 105% | 101% | 99.8% | 88.7% | 99.9% | 99.1% | 100% | 94.8% | 90.9% | 101% | 99.1% | 103% | 94.5% | 89.8% | 100% | 101% | 97.6% | 105% | 86.5%
14 | COCCCOc1cc(C[C@@H](C[C@H](N)[C@@H](O)C[C@H](C(=O)NCC(C)(C)C(N)=O)C(C)C)C(C)C)ccc1OC [aliskiren-hemifumarate] | – | > 10 µM | > 10 µM | > 10 µM | > 10 µM | 3.7 | 0 | 0 | 0 | 0 | 84.8% | 81.9% | 70.4% | 89.1% | 100% | 93.8% | 95.3% | 91.8% | 93.9% | 93.2% | 97.2% | 102% | 101% | 103% | 93.7% | 88.8% | 101% | 96.5% | 96% | 88% | 111% | 103% | 103% | 87.5% | 100%
